Literature values in US10865157B2, “Methods and compositions for increasing the yield of, and beneficial chemical composition of, certain plants” (B.K. Consultants, Inc., priority 2014, dated 2020).

Settings: similarly sized particles

Compound: CC(=O)Oc1ccccc1C(=O)O [non-crystalline aspirin, aspirin]
- solubility in water relative to the crystal form: 2 to 8 times
